Values quoted from earlier work in patent publication US20100120723A1, “PHARMACEUTICAL COMPOSITION COMPRISING A HOT-MELT GRANULATED LUBRICANT” (priority 2006, published 2010).

System: bone resorption
Conditions: animal models of bone resorption

In the case of CCCCCN(C)CCC(O)(P(=O)(O)O)P(=O)(O)O [Sodium ibandronate], the “potency relative to alendronate, risedronate, pamidronate and clodronate” value is listed as “many times more potent”.
